Reference: US7538101B2, “1,1-dioxo-thiomorpholinyl indolyl methanone derivatives” (Hoffmann-La Roche Inc., priority 2005, dated 2009)

Molecular target: T1, histamine 3 receptor (H3R) (Homo sapiens, UniProt Q9Y5N1)
T1 construct: expressed in transfected cells; host or cells: CHO cells (HR3-CHO cell line), membrane preparation
Experiment: Binding assay with 3H-(R)α-methylhistamine (competition binding, membranes of the human HR3-CHO cell line)
Conditions: membrane of human HR3-CHO cell line; 3H(R)α-Methylhistamine 1 nM; Ki calculated from IC50 by Cheng-Prusoff equation
Procedure: Binding Assay with ^3H—(R)α-methylhistamine
Saturation binding experiments were performed using HR3-CHO membranes prepared as described in Takahashi, K, Tokita, S., Kotani, H. (2003) J. Pharmacol. Exp. Therapeutics 307, 213-218.
An appropriate amount of membrane (60 to 80 μg protein/well) was incubated with increasing concentrations of ^3H(R)α-Methylhistamine di-hydrochloride (0.10 to 10 nM). Non specific binding was determined using a 200 fold excess of cold (R)α-Methylhistamine dihydrobromide (500 nM final concentration). The incubation was carried out at room temperature (in deep-well plates shaking for three hours). The final volume in each well was 250 μl. The incubation was followed by rapid filtration on GF/B filters (pre-soaked with 100 μl of 0.5% PEI in Tris 50 mM shaking at 200 rpm for two hours). […] After harvesting, the plates were dried at 55° C. for 60 min, then we added scintillation fluid (Microscint 40, 40 microl in each well) and the amount of radioactivity on the filter was determined in Packard top-counter after shaking the plates for two hours at 200 rpm at room temperature. […]
All compounds were tested at a single concentration in duplicates. […] Ki's were calculated from IC50 based on Cheng-Prusoff equation (Cheng, Y, Prusoff, W H (1973) Biochem Pharmacol 22, 3099-3108).

T1 sequence (Q9Y5N1 whole entry): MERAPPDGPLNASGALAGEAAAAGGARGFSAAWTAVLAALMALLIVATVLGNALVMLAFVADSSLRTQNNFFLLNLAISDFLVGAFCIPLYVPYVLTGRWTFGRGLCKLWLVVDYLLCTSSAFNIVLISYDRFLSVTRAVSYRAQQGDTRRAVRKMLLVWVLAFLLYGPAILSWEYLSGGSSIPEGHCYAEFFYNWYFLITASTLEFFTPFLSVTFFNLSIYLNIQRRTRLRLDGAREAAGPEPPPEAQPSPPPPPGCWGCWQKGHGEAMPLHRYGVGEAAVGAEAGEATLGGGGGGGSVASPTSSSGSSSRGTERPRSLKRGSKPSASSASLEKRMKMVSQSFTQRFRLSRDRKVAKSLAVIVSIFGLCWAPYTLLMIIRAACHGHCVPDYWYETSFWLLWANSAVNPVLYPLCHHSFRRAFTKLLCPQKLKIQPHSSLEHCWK

In the case of CC(C)N1CC[C@H](Oc2ccc3[nH]c(C(=O)N4CCS(=O)(=O)CC4)cc3c2)C1 [Example 4, (1,1-Dioxo-thiomorpholin-4-yl)-[5-(1-isopropyl-pyrrolidin-3S-yloxy)-1H-indol-2-yl]-methanone], the Ki is reported as 49 nM.
With CC(C)N1CCC(Oc2ccc3c(c2)cc(C(=O)N2CCS(=O)(=O)CC2)n3CC(F)(F)F)CC1 [Example 1, (1,1-Dioxo-thiomorpholin-4-yl)-[5-(1-isopropyl-piperidin-4-yloxy)-1-(2,2,2-trifluoro-ethyl)-1H-indol-2-yl]-methanone] the Ki was 3 nM.
